# From US20230123334A1, “AMINO LIPID COMPOUND, PREPARATION METHOD THEREFOR, AND APPLICATION THEREOF” (SHENZHEN SHENXIN BIOTECHNOLOGY CO., LTD., priority 2020, published 2023)
# Tested on: HEK293 cells
# Assay: Preliminary screening as mRNA vectors, EGFP mRNA transfection of HEK293 cells
# Format: cell-based
# Details: EGFP mRNA 50 ng per well, 96-well plates; percentage of GFP fluorescent cells relative to total number of cells (Hoechst)
# Description: Cell line: HEK293 cells (ATCC CRL-1573™)
# Medium: DMEM supplemented with 10% fetal bovine serum (Invitrogen)
# Screening: cell transfection on 96-well plates
# Detection (readout): percentage of the number of GFP fluorescent cells relative to the total number of cells (the total number of cells was determined using nucleus dye Hoechst). Lipofectamine2000 (Invitrogen) was used as the positive control.
# Method: the experimental method was basically the same with Example 4, and the mass of EGFP mRNA (TriLink) for transfection was 50 ng per well.
row,Structure (SMILES),Absolute mRNA transfection efficiency in HEK293 cells [%]
1,CCCCCCCCCCSc1nc(NCCN(C)C)nc(SCCCCCCC)n1 [Compound D1S7S10],5.6
2,CCCCCCCCCCCSc1nc(NCCN(C)C)nc(SCCCCCCC)n1 [Compound D1S7S11],4.1
3,CCCCCCCCCCCCSc1nc(NCCN(C)C)nc(SCCCCCCC)n1 [Compound D1S7S12],3.1
4,CCCCCCCCCCCCCCSc1nc(NCCN(C)C)nc(SCCCCCCC)n1 [Compound D1S7S14],3.1
5,CCCCCCCCCCCCCCCSc1nc(NCCN(C)C)nc(SCCCCCCC)n1 [Compound D1S7S15],3.9
6,CCCCCCCCCCCCCCCCSc1nc(NCCN(C)C)nc(SCCCCCCC)n1 [Compound D1S7S16],6.9
7,CCCCCCCCCCCCCCCCCCSc1nc(NCCN(C)C)nc(SCCCCCCC)n1 [Compound D1S7S18],4.1
8,CCCCCCCCSc1nc(NCCCCCC)nc(NCCN(C)C)n1 [Compound D1S8N6],2.4
9,CCCCCCCCSc1nc(NCCCCCCC)nc(NCCN(C)C)n1 [Compound D1S8N7],2.0
10,CCCCCCCCNc1nc(NCCN(C)C)nc(SCCCCCCCC)n1 [Compound D1S8N8],5.8
11,CCCCCCCCCNc1nc(NCCN(C)C)nc(SCCCCCCCC)n1 [Compound D1S8N9],21.4
12,CCCCCCCCCCCNc1nc(NCCN(C)C)nc(SCCCCCCCC)n1 [Compound D1S8N11],9.0
13,CCCCCCCCCCCCNc1nc(NCCN(C)C)nc(SCCCCCCCC)n1 [Compound D1S8N12],17.9
14,CCCCCCCCCCCCCNc1nc(NCCN(C)C)nc(SCCCCCCCC)n1 [Compound D1S8N13],15.5
15,CCCCCCCCCCCCCCCNc1nc(NCCN(C)C)nc(SCCCCCCCC)n1 [Compound D1S8N15],23.8
16,CCCCCCCCCCCCCCCCNc1nc(NCCN(C)C)nc(SCCCCCCCC)n1 [Compound D1S8N16],22.5
17,CCCCCCCCCCCCCCCCCCNc1nc(NCCN(C)C)nc(SCCCCCCCC)n1 [Compound D1S8N18],19.3
18,CCCCCCCCSc1nc(NCCN(C)C)nc(SCCCCCCCC)n1 [Compound D1S8S8],11.7
19,CCCCCCCCCSc1nc(NCCN(C)C)nc(SCCCCCCCC)n1 [Compound D1S8S9],7.4
20,CCCCCCCCCCSc1nc(NCCN(C)C)nc(SCCCCCCCC)n1 [Compound D1S8S10],8.6
21,CCCCCCCCCCCSc1nc(NCCN(C)C)nc(SCCCCCCCC)n1 [Compound D1S8S11],3.0
22,CCCCCCCCCCCCSc1nc(NCCN(C)C)nc(SCCCCCCCC)n1 [Compound D1S8S12],1.4
23,CCCCCCCCCSc1nc(NCCCCCC)nc(NCCN(C)C)n1 [Compound D1S9N6],1.1
24,CCCCCCCCCSc1nc(NCCCCCCC)nc(NCCN(C)C)n1 [Compound D1S9N7],0.3
25,CCCCCCCCCSc1nc(NCCCCCCCC)nc(NCCN(C)C)n1 [Compound D1S9N8],2.9
26,CCCCCCCCCNc1nc(NCCN(C)C)nc(SCCCCCCCCC)n1 [Compound D1S9N9],8.0

row,Structure (SMILES),Absolute mRNA transfection efficiency in HEK293 cells [%]
1,CCCCCCCCCCCNc1nc(NCCN(C)C)nc(SCCCCCCCCC)n1 [Compound D1S9N11],53.0
2,CCCCCCCCCCCCNc1nc(NCCN(C)C)nc(SCCCCCCCCC)n1 [Compound D1S9N12],30.2
3,CCCCCCCCCCCCCNc1nc(NCCN(C)C)nc(SCCCCCCCCC)n1 [Compound D1S9N13],25.8
4,CCCCCCCCCCCCCCCNc1nc(NCCN(C)C)nc(SCCCCCCCCC)n1 [Compound D1S9N15],27.4
5,CCCCCCCCCCCCCCCCNc1nc(NCCN(C)C)nc(SCCCCCCCCC)n1 [Compound D1S9N16],25.6
6,CCCCCCCCCCCCCCCCCCNc1nc(NCCN(C)C)nc(SCCCCCCCCC)n1 [Compound D1S9N18],47.6
7,CCCCCCCCCCSc1nc(NCCCCCC)nc(NCCN(C)C)n1 [Compound D1S10N6],0.4
8,CCCCCCCCCCSc1nc(NCCCCCCC)nc(NCCN(C)C)n1 [Compound D1S10N7],0.2
9,CCCCCCCCCCSc1nc(NCCCCCCCC)nc(NCCN(C)C)n1 [Compound D1S10N8],0.5
10,CCCCCCCCCCSc1nc(NCCCCCCCCC)nc(NCCN(C)C)n1 [Compound D1S10N9],0.5
11,CCCCCCCCCCCNc1nc(NCCN(C)C)nc(SCCCCCCCCCC)n1 [Compound D1S10N11],6.2
12,CCCCCCCCCCCCNc1nc(NCCN(C)C)nc(SCCCCCCCCCC)n1 [Compound D1S10N12],2.4
13,CCCCCCCCCCCCCNc1nc(NCCN(C)C)nc(SCCCCCCCCCC)n1 [Compound D1S10N13],1.7
14,CCCCCCCCCCCCCCCNc1nc(NCCN(C)C)nc(SCCCCCCCCCC)n1 [Compound D1S10N15],2.8
15,CCCCCCCCCCCCCCCCNc1nc(NCCN(C)C)nc(SCCCCCCCCCC)n1 [Compound D1S10N16],40.7
16,CCCCCCCCCCCCCCCCCCNc1nc(NCCN(C)C)nc(SCCCCCCCCCC)n1 [Compound D1S10N18],4.8
17,CCCCCCCCCCCSc1nc(NCCCCCC)nc(NCCN(C)C)n1 [Compound D1S11N6],4.4
18,CCCCCCCCCCCSc1nc(NCCCCCCC)nc(NCCN(C)C)n1 [Compound D1S11N7],11.7
19,CCCCCCCCCCCSc1nc(NCCCCCCCC)nc(NCCN(C)C)n1 [Compound D1S11N8],13.1
20,CCCCCCCCCCCSc1nc(NCCCCCCCCC)nc(NCCN(C)C)n1 [Compound D1S11N9],14.7
21,CCCCCCCCCCCNc1nc(NCCN(C)C)nc(SCCCCCCCCCCC)n1 [Compound D1S11N11],24.7
22,CCCCCCCCCCCCNc1nc(NCCN(C)C)nc(SCCCCCCCCCCC)n1 [Compound D1S11N12],27.3
23,CCCCCCCCCCCCCNc1nc(NCCN(C)C)nc(SCCCCCCCCCCC)n1 [Compound D1S11N13],12.6
24,CCCCCCCCCCCCCCCNc1nc(NCCN(C)C)nc(SCCCCCCCCCCC)n1 [Compound D1S11N15],6.2
25,CCCCCCCCCCCCCCCCNc1nc(NCCN(C)C)nc(SCCCCCCCCCCC)n1 [Compound D1S11N16],13.0
26,CCCCCCCCCCCCCCCCCCNc1nc(NCCN(C)C)nc(SCCCCCCCCCCC)n1 [Compound D1S11N18],15.4
